Reference: a melting point compilation (Tetko et al.; mined from patent text by program, amines drawn as free bases though some values may be those of a salt)

| Compound | melting point |
| --- | --- |
| CC1(CCC(N)=O)C(=O)CCC1=O | 159 to 162 °C |
| COc1cc(S(C)(=O)=O)ccc1-c1ccc(C#N)c(=O)[nH]1 | 280 to 282 °C |
| CN(C)C(C)(C)C(N)=O | 109 to 111 °C |
| O=c1[nH]c(=O)c2cn(C3CCCC3)nc2[nH]1 | > 300 °C |
| O=c1[nH]c(F)c(Cl)c(Cl)c1Cl | 172 to 176 °C |
| COc1cccc(C2c3c(C)c(NC(=O)CC(C)(C)C)c(C)c(C)c3OC2(C)C)c1 (stereo not given) | 166 to 167 °C |
| CCc1cc(C)c(Br)c(CC)c1-c1c(OC(=O)OC)c(C)nn(C)c1=O | 113 to 115 °C |
| COc1ccc(S(=O)(=O)C2(C(=O)O)CCN(C(C)C)CC2)cc1 | 204 °C |
| CCCN(C(=O)COc1c(OC)cccc1OC)C1CCc2c(ccc(O)c2O)C1 (stereo not given) | 157 to 158 °C |
| O=C(O)CON=CCBr | 56 to 58 °C |
| C#Cc1ccc2c(c1)C(c1ccccn1)=NCc1c(-c3nc(C(C)C)no3)ncn1-2 | > 200 °C |
| Cc1cc(C(F)(F)F)nn1CC(=O)N1CCC(c2nc(C3=NOC(c4cccc(-n5cncn5)c4)C3)cs2)CC1 (stereo not given) | 83 to 85 °C |
| O=C(O)CCCCc1nc2c(F)c(F)cc(F)c2s1 | 122 to 124 °C |
| O=C(NCCc1cccs1)C1CC2C=CC1C2 (stereo not given) | 71 to 72 °C |
| Cn1c(C(F)(F)F)cc(=O)n(-c2nc(Cl)c(Cl)cc2F)c1=O | 113 to 115 °C |
| CSc1sc(-c2ccccn2)c2c1-c1oncc1C(C)(C)C2 | 153 to 155 °C |

| Compound | melting point |
| --- | --- |
| CCCCCCCCCCCCCCCCCCOc1cccc(C(=O)O)c1OCCCOc1ccc(OCc2ccccc2)cc1 | 75 to 76 °C |
| CCc1cc(CO)c(OC)nc1C | 53 to 55 °C |
| CCCOCCOC(=O)C1=C(C)NC(C)=C(C(=O)C(C)S(=O)(=O)NC)C1c1cccc([N+](=O)[O-])c1 (stereo not given) | 120 to 123 °C |
| COCc1nccn1CC(=O)c1ccc(-c2ccc(N3C[C@H](Cn4ccnn4)OC3=O)cc2F)cn1 | 78 to 80 °C |
| COc1cccc2c1CC(N=[N+]=[N-])C(O)C2 (stereo not given) | 83 to 84 °C |
| Nc1ncc(C(=O)CBr)cc1Cl | 134 °C |
| COC(=O)c1nc2cc(OC)ccc2c(O)c1C(=O)OC | 202 to 204 °C |
| CC(C)(C)c1cc(-c2csc(SCC(=O)O)n2)cc(C(C)(C)C)c1O | 158 to 159 °C |
| CCOP(=O)(Cc1ccc(NC(=O)c2sc(SC)c3c2CCc2nc(C)oc2-3)cc1)OCC | 197 to 198 °C |
| CCc1nc(N)sc1-c1ccncc1 | 209 to 211 °C |
| C=CCN(CC=C)c1nc(N)n2oc(=O)nc2n1 | 211 to 213 °C |
| CC(C)C(=O)NC1CCc2c(c3cc(-c4nnc(N)s4)ccc3n2Cc2cccc(F)c2)C1 (stereo not given) | 251 to 254 °C |
| CC(C)(C)OC(=O)N1C(=O)[C@H](O)[C@@H]1C1CCCCC1 | 121 to 122 °C |
| CC1CN(c2c(F)c(N)c3c(=O)c(C(=O)O)cn(C4CC4)c3c2OC(F)F)CCN1 (stereo not given) | 283 to 286 °C |
| CNC(=O)N(OC(=O)OC)c1ccc(Cl)c(Cl)c1 | 110 °C |

Results, then the molecule that gave them:

| melting point | Compound |
| --- | --- |
| 242 to 246 °C | CN1C(=O)C(c2ccccc2)=C(c2cn(C)c3ccccc23)C1=O |
| 167 to 168 °C | CCn1cc(-c2ccc([C@H](C)N3CC[C@](CC(C)(C)O)(c4ccccc4)OC3=O)cc2)ccc1=O |
| 214 to 215 °C | OC(Cc1nnn[nH]1)(Cn1cncn1)c1ccc(Cl)cc1Cl (stereo not given) |
| 131 to 132 °C | O=C(NCc1ccc(Cl)cc1)c1ccccc1S |
| 165 to 169 °C | NNc1ccc2c(=O)n(Cc3ccccc3)cnc2c1 |
| 245 to 247 °C | c1ccc2c(c1)CCc1c(N3CCN(Cc4c[nH]c5ncccc45)CC3)n[nH]c1-2 |
| 134 to 136 °C | CCOC(=O)c1ccc(NC(=O)CCc2ccc(OC)cc2)cc1 |
| 245 to 246 °C | Cc1cnc(C(=O)c2[nH]c3ccc(Cl)cc3c2CC(=O)O)cc1C |
| 258 to 260 °C | Cc1ccc(N2C(=O)C(N)=C(C(=O)c3ccc(C(C)C)cc3)C2c2ccc(OC(F)(F)F)cc2)nn1 (stereo not given) |
| 61 to 63 °C | N#Cc1ccc([C@@H]2[C@@H]3C(=O)N(Cc4ccc5c(c4)OCO5)C(=O)[C@@H]3[C@H]3CCCN32)cc1 (racemic) |
| 110 to 111 °C | CC(=O)C1CCC(CNC(=O)c2cccnc2Oc2ccc(F)cc2)CC1 (stereo not given) |
| 223 to 226 °C | COc1ccc2nc(NC(=O)C(CC3CCCC3)c3ccc(S(=O)(=O)Nc4ccccc4)cc3)sc2n1 (stereo not given) |
| 165 to 166 °C | Cc1nc(-c2ccc(Cl)cc2)[nH]c1C(=O)N[C@H](C)[C@](O)(Cn1cncn1)c1ccc(F)cc1F |
| 154 to 155 °C | c1ccc2c(c1)CCc1c(CN3CCN(c4ccc5ccccc5n4)CC3)n[nH]c1-2 |
| 198 to 200 °C | Nc1nnc(C(=O)OCc2ccccc2)s1 |
| 132 to 134 °C | COC(=O)C(C)(C)OCc1cc2cc(Cl)ccc2n1S(=O)(=O)c1ccc2sc(C)nc2c1 |
| 185 to 186 °C | O=C(Nc1cccc(C(F)(F)F)c1F)c1ccccc1NCc1ccc(=O)[nH]c1 |
| 160 to 162 °C | CN1N=C(c2ccc(F)cc2)c2ccc(C(F)(F)F)cc2CS1(=O)=O |
| 99 to 100 °C | COC(=O)CN1C(=S)C(C(C)C)Sc2ccccc21 (stereo not given) |
| 115 to 117 °C | CS(=O)(=O)c1ccc(-c2[nH]c(CO)nc2-c2ccc(F)cc2)cc1 |

| melting point | Compound |
| --- | --- |
| 209 °C | CCOC(=O)c1cc(=O)c2ccc3nc(C(=O)OC)cc(Cl)c3c2o1 |
| 65 to 69 °C | C=CCOC(=O)NC(C)(C)c1ccc(-c2nc(Nc3ccc(CCN4CCOCC4)cc3)ncc2Cl)cc1 |
| 120 to 122 °C | O=C(O)CCCC#CCN1C(=O)c2ccccc2C1=O |
| > 250 °C | CCc1ccc(Nc2nc3cc(NC(=O)c4ccc(OC)c(OC)c4)ccc3o2)cc1 |
| 247 to 250 °C | CCCc1ccc(-c2ccc3c(c2)C=C(C(=O)Nc2ccc(CN(C)C4CCOCC4)cc2)CCS3(=O)=O)cc1 |
| 116 °C | Cc1nc2ccc(Cn3ccnc3)cc2nc1Cl |
| 143 to 145 °C | Cc1ccc2c(n1)Oc1ccc(C(C)C(=O)OCCC(N)=O)cc1C2 (stereo not given) |
| 194 to 197 °C | CCOCCN(CC)c1ccc(-c2ccc3c(c2)C=C(C(=O)Nc2ccc(CN(C)C4CCOCC4)cc2)CCS3(=O)=O)cc1 |
| 133 to 135 °C | CCOC(=O)c1cc(C#N)c(C)nc1Nc1ccccc1 |
| 98.5 to 99.4 °C | C(#Cc1ccccn1)CCc1nc2ccccc2s1 |
| 59 to 60 °C | CCCc1c(OCCC2Cc3cc(CC(=O)OC)ccc3O2)ccc(C(C)=O)c1O (stereo not given) |
| 65 to 70 °C | CC1(C)C=Cc2cc(C(=O)NCCCCc3ccccc3)ccc2O1 |
| 131 to 132 °C | COC[C@@H](C)N1Cc2c(ccc(Cl)c2NC(=O)c2ccc(F)c(C(F)(F)F)c2)C1=O |
| 149 to 151 °C | CCCCC1(CCCC)CCc2c(OCc3ccc4ccccc4n3)ccc(C)c2C1O (stereo not given) |
| 98 to 100 °C | CC(C)C(OCc1ccccc1)[C@H]1[C@H]([N+](=O)[O-])[C@H](c2cccnc2)N[C@@H]1C(=O)NCCC(=O)O (stereo not given in full) |
| 146 to 147 °C | COC(=O)c1cc(OCc2ccc(OCc3nc(-c4ccco4)oc3C)c(OC)c2)nn1-c1ccccc1 |
| 285 to 290 °C | CC(=O)Nc1ccc(-c2nc3n(c2-c2ccc(NC(C)=O)cc2)CCS3)cc1 |
| 80 °C | O=[N+]([O-])CS(=O)(=O)c1ccccc1C(F)(F)F |
| 132 to 133 °C | Cc1cc(-c2cc(COS(C)(=O)=O)c(=O)n(Cc3ccc(Cl)cc3)n2)ccc1F |
